Entries after “also recorded” stand apart in the source; their conditions may differ.
Legend:
Type in all cases: in vivo, mouse
[1] = tested on: C57BL/6 normal mice; test: IOP measurement (applanation tonometer) after transscleral ciliary body PDT in C57BL/6 normal mice
Procedure: All experiments were performed in accordance with the Association for Research in Vision and Ophthalmology Statement for the Use of Animals in Ophthalmic and Vision Research. C57BL/6 female mice aged 3 months (n=20) were used as the normal model. DBA/2J female mice aged 8 months (n=20) were used as the glaucoma mouse model. One eye of each animal was treated and the other eye served as a control (for both the normal and glaucoma models). Animals were housed in covered cages, were fed with a standard rodent diet ad libitum and were kept under constant 12 hour light-12 hour dark cycles. For general anesthesia, a mixture of ketamine (100 mg/kg) and xylazine (9 mg/kg) was administered intraperitoneally.
Verteporfin photosensitizer (Novartis Ophthalmics, Inc., Duluth, Ga.) was used in these experiments. The mice were systemically anesthetized prior to PDT, and the photosensitizer dye was administered to the animals by tail vain injections using a 30 G needle 5 minutes before laser irradiation. A dose of 2.0 or 4.0 mg/kg was used in C57BL/6 normal mice and of 1.0 mg/kg was used in DBA/2J mice. The laser irradiation to the ciliary body was applied transsclerally using a 600 μm optical fiber at a wavelength of light of 689 nm from a Diode Laser, with an irradiance of 1800 mW/cm^2 and a fluence of 100 J/cm^2 (Lumenis, Santa Clara, Calif.). […] In the C57BL/6 and DBA/2J mice, 16 and 8 spots, respectively, were irradiated to overlap with one another. In the eyes prepared for lectin labeling and terminal deoxynucleotide transferase-mediated nick end labeling (TUNEL) staining (a measure of apoptosis), PDT was performed in C57BL/6 mice to cover 180 degrees of the ciliary body at a 4.0 mg/kg verteporfin dose to compare the degree of staining between irradiated area and non-irradiated area. Retreatment was performed in C57BL/6 normal mice which had been treated with 2.0 mg/kg of verteporfin after the IOP measurement at post-PDT day 7 using the same light parameters.
The IOP was measured using a previously reported applanation tonometer (Ahamed et al. (2003) IOVS 44:ARVO E-Abstract 3336) (n=12 in DBA/2J mice, n=5 in C57BL/6 mice at each dose). The principle of applanation tonometry employs fiber-optic gauges which are designed around a Fabry-Perot interferometer (FPI) (FTI-10; FISO Technologies, Inc., Quebec, Canada). FPI consists of two mirrors facing each other, the space separating the mirrors being called the cavity length. Light reflected in the FPI is wavelength-modulated in exact accordance with the cavity length. FPI gauges convert pressure into cavity length variations which correlate with IOP.
IOP was measured under general anesthesia. Standardization of the plane of anesthesia was obtained as described previously (John et al. (1997) INVEST. OPHTHALMOL. VIS. SCI. 38:249-53). Anesthesia was administered to one mouse at a time. […] Then anesthesia was injected in the next mouse.
As soon as the mice were anesthetized sufficiently, they were placed on a surgical platform. When the pressure sensor applanated a central area of mouse cornea under a dissecting microscope, the IOP (psi) was measured by the device 10 times automatically. The resulting pressures were converted into mmHg units by multiplying the obtained mean value by […]. The LOP was measured every 2 days in the first week, then twice a week until 4 weeks after PDT, and then once a week until 8 weeks after PDT.

[2] = tested on: ciliary body; test: Histology (light and electron microscopy) of ciliary body after PDT in C57BL/6 normal mice
Procedure: Eyes were enucleated at 6 hours (only DBA/2J), at 1 and 7 days after treatment, and at the end of IOP follow up (8 weeks after treatment)(n=2 in each group at each time point) and processed for light and transmission electron microscopic examination. The eyes were bisected behind the limbus, placed in modified Karnovsky's fixative at 4° C. overnight, and then transferred to 0.1 M cacodylate buffer at pH 7.4. Ciliary body specimens were observed by stereomicroscopy at 1 day after PDT for normal mice in the 4.0 mg/kg dose-treated group. Tissues were postfixed in aqueous 2% osmium tetroxide, stained en bloc with Uranyl Acetate, dehydrated in graded ethanols, and embedded in Epon. One-micrometer-thick sections were stained with 0.5% toluidine blue in borate buffer for light microscopy and examined using a photomicroscope (Leica Microsystems, Wetzlar, Germany). Thin sections were stained with aqueous uranyl acetate, and Sato's lead stain, and examined with a transmission electron microscope (CM 10; Phillips, Eindhoven, The Netherlands).

[3] = tested on: retinal ganglion cells; test: Retinal ganglion cell (RGC) count in DBA/2J mice, fluorochrome retrograde labeling
Excerpt: Four weeks after the end of IOP follow up, RGC was counted in DBA/2J mice (11 months old) as described previously (Levkovitch-Verbin et al. (2000) INVEST. OPHTHALMOL. VIS. SCI. 41:4169-74, Danias et al. (2003) INVEST. OPHTHALMOL. VIS. SCI. 44:5151-62) with slight modification (n=4). After the mice were anesthetized, the skin over the cranium was incised, and the scalp was exposed. Holes approximately 2 mm in diameter were drilled in the skull 4 mm posterior to the bregma, 1 mm lateral to the midline on both sides of the midline raphe. The neurotracer dye fluorochrome (Fluoro-gold, Englewood, Colo.) (4% solution in saline) was directly applied (1 μL, at a rate of 0.5 μL/min) at a depth of 2 mm from the brain surface using a Hamilton syringe (Hamilton, Reno, Nev.). Skull openings then were sealed with antibiotic ointment. The overlying skin was sutured and antibiotic ointment applied externally.
Seven days after the application of fluorochrome, the eyes were enucleated. […] Cell counting was performed as previously described (Nakazawa et al. (2002) INVEST. OPHTHALMOL. VIS. SCI. 43:3319-26) under a fluorescence microscope (Leica Microsystems, Wetzlar, Germany) using a UV filter set. RGC densities were determined by counting the tracer-labeled RGCs in 12 distinct areas of 9.0×10^−2 mm^2 each (three areas per retinal quadrant at 1/6, 3/6 and 5/6 of the retinal radius). […]

Substance: verteporfin
- reduction of mean IOP of treated eyes compared to the control eyes ([1]; 2 mg/kg i.v., 360 degrees, 3 days after treatment, p<0.01): 41.3%
- reduction of mean IOP of treated eyes compared to the control eyes ([1]; 2 mg/kg i.v., 689 nm, 100 J/cm^2, 360 degrees, 1 day after treatment, p<0.05): 35.1%
- IOP reduction, preliminary experiments ([1]; 2.0 mg/kg, 180° of the ciliary body irradiated): significant IOP reduction was not obtained
- time by which mean IOP returned to the level of the fellow control eyes ([1]; 2.0 mg/kg, after first treatment): ≤ 7 days
- mean IOP of treated eyes ([1]; 2 mg/kg, retreatment at day 7, 10 days after first PDT): 8.7±2.6 mmHg
- mean IOP of treated eyes ([1]; 2 mg/kg, retreatment at day 7, 14 days after first PDT): 9.5±2.1 mmHg
- time by which mean IOP returned to the level of the control eyes ([1]; 2 mg/kg, with retreatment at day 7, days after PDT): ≤ 17 days
- mean IOP in treated eyes versus fellow control eyes ([1]; 2 mg/kg, with retreatment, 28 and 42 days after PDT): statistically lower than the level of fellow control eyes
- duration of significant reduction of mean IOP ([1]; 4 mg/kg): 14 days
- mean IOP of treated eyes ([1]; 4 mg/kg i.v., 360 degrees, 1 day after treatment, p<0.05): 9.2±2.4 mmHg
- time by which mean IOP returned to the level of the fellow control eyes ([1]; 4 mg/kg, after treatment): ≤ 17 days
- reduction of mean IOP of treated eyes compared to the control eyes ([1]; 4 mg/kg, 1 day after treatment): 42.1%
- reduction of mean IOP of treated eyes compared to the control eyes ([1]; 4 mg/kg, 5 days after treatment): 47.3%
- mean IOP of treated eyes (minimum) ([1]; 4 mg/kg, 5 days after treatment, p<0.01): 7.2±1.9 mmHg
- duration of significant reduction of mean IOP ([1]; treated normal mice eyes (2.0 and 4.0 mg/kg)): 7 to 17 days
- ciliary body histological findings ([2]; 2.0 mg/kg and 4.0 mg/kg, 7 days after PDT): ciliary body vessels had recanalized
- ciliary body histological findings ([2]; 2.0 mg/kg, 1 day after PDT): Most ciliary body blood vessels in treated eyes appeared thrombosed and all capillaries were damaged
- ciliary body histological findings ([2]; 4.0 mg/kg, 1 day after PDT): vascular injury, thrombosis with vacuolization of endothelial cells, extravasculum of leukocyte and erythrocytes and severe edema
- number of retinal ganglion cells in the treated eyes ([3]; 1.0 mg/kg PDT at 8 months, counted at 11 months of age): 3905±627 /mm^2
- retinal ganglion cell survival, treated versus control eyes ([3]; 1.0 mg/kg PDT, 3 month period, p<0.05): significantly higher than control eyes; also recorded: loss of retinal ganglion cells over the 3 month period was significantly reduced

— patent publication US10272261B2, “Methods and compositions for treating ocular glaucoma” (Massachusetts Eye and Ear Infirmary, priority 2004, dated 2019)
